The source of these data is patent EP0255420B1, “Antiviral agent for inhibiting growth of virus of acquired immune deficiency syndrome (AIDS)” (priority 1986, dated 1988).

The subject of data set [1] is herpes simplex virus. The settings on record: cited from earlier work.
The subject of a further data set is VSV. The conditions noted are these: cited from earlier work.
In another data set the target is reverse transcriptase (Human immunodeficiency virus type 1 group M subtype B, UniProt P04585). Kind of data set: Reverse transcriptase assay with disrupted HIV. The format is biochemical. More on the design: made in house; host or cells: virions from culture supernatants of HIV-producing Molt-4 cells (Molt-4/HIV), disrupted with Triton X-100. The procedure: Supernatants of Molt-4/HIV were concentrated 100 times by sucrose gradient ultracentrifugation. The viral pellets were disrupted by addition of suspension buffer containing 5 mM Tris-HCI(pH 8.1), 0.5 M KCI, 0.1 mM dithiothreitol and 0.1 % Triton® X-100. The assay for reverse transcriptase activity was performed at 37°C for 1 h with a 10 0 of the disrupted HIV in a final volume of 50 µl containing 50 mM Tris-HCI(pH 8.4), 2 mM dithiothreitol, 100 mM KCI, 10 mM MgCI, 0.01 % Triton X-100. 1 wCi 3H-thymidine triphosphate (57 Ci/m mol.; Amersham, Buckinghanshire, UK) and 50 gg/ml poly(rA)/oligo(dT)(P-L Biochemicals Inc., Milwaukee, Wis). The reaction was stopped with 5% trichloroacetic acid, and precipitates were collected on glass fibre filters and counted in a liquid scintillation counter (Harada et. al; Virology 146, p.272-281,1985b). The assays were carried out in triplicate.

Data set [2] has as its system HIV. The class given is cell-based. The procedure: HIV was obtained from the culture supernatant of Molt-4/HIV. Titer of virus preparation was 6x10^4 plaque forming units/ml. Infection of MT-4 cells and clone No. 8 cells of Molt-4 with HIV was made at a multiplicity of infectin of 0.002.
To evaluate the direct effect of glycyrrhizin on the infection of HIV in MT-4 cells, plaque assay using agarose overlay medium with various concentrations of glycyrrhizin was performed. Briefly, in order to fasten MT-4 cells onto culture vessels, 35 mm polystyrene tissue culture dishes were coated with poly-L-lysine (Sigma Chemical Co., St. Louis,Mo) One and half milliliters of 1.50 x 10^6/ml MT-4 cells were dropped onto each poly-L-lysine-coated dish and incubator for 1 hour at room temperature. The dishes were gently washed with phosphate buffered saline to remove unbound cells, 100 p.1 of appropriate diluted virus preparation was slowly added and incubated for 1 hour at room temperature for virus adsorption. After adsorption, 1 ml of the agarose overlay medium consisting of RPMI 1640 medium with 10 % fetal calf serum, antibiotics and 0.6 % agarose (Sea plaque Agarose, Marine Colloid Corp., Rockland, Me) was poured into each dish. The dishes were incubated in a C02 incubator at 37°C for 3 days and 1 ml of agarose overlay medium containing neutral red was added. The dishes were incubated 3 more days and visible plaque were counted. All experiments were carried out in triplicate.

The subject of data set [3] is HIV. Kind of data set: Assay for HIV induced cytopathic effects in HIV infected MT-4 cells (viable cells, trypan blue exclusion). The conditions noted are these: day 3, multiplicity of infection 0.002. The class given is cell-based.
Data set [4] concerns MT-4 cells. Kind of data set: Growth of MT-4 cells not exposed to virus (viable cell count). The format is cell-based. The settings on record: 2 mg/ml. An excerpt: • Fig. 1 is a view showing direct effect of glycyrrhizin on HIV induced plaque forming activity in MT-4 cells. Results are the mean of two experiments each performed in triplicate. • Fig. 2 is a view showing inhibition of cytopathic effect of HIV on MT-4 cells by glycyrrhizin. […] Data are from a single experiment, representative of four separate experiments. […] The viable cells were detected by trypan blue exclusion staining method.

The subject of data set [5] is MT-4 cells. Description: 3H-thymidine uptake in MT-4 cells (DNA synthesis). The class given is cell-based. The conditions noted are these: 3 days. As for the experimental part: (§1) MT-4 cells were adjusted to 3x10^5 cells/ml in fresh medium and cultured with various concentrations of glycyrrhizin in a 96-flat bottom well microtiter plate for 3 days. 10^6 pheripleral blood monouclear cells were cultured with 1 wg/ml of poly clonal mitogen PHA or concanavalin A various concentrations of glycyrrhizin for 3 days. Cells were incubated with either 1 µCi/well of ^3H-thymidine (20 Ci/m mol.; New Engl.Nuclear, Boston, MA), for the last 18 hours. The cells were harvested on a glassfiber filter paper and counted in a liquid scintillation counter. All experiments were carried out in triplicate.

Data set [6] has as its system HIV. Description: Assay for HIV specific antigen expression in HIV infected MT-4 cells (indirect immunofluorescence). The format is cell-based. The settings on record: for percentage of IF-positive cells: day 3 after infection.
The next data set has as its system HIV particles. Description: Inactivation of HIV particles by glycyrrhizin (pre-incubation, then plaque assay). The settings on record: even at 2 mg/ml, 60 min at 37°C. The class given is cell-based. As for the experimental part:
0.5 ml of HIV containing plaque forming units was mixed with 0.5 ml of various concentrations of glycyrrhizin in the test tubes and incubated at 37°C.
After 60 min. incubation 0.1 ml of each mixture was diluted with 19.9 ml of culture medium, and 0.1 ml of the […] diluted virus preparation was added. After adsorption, 1 ml of the agarose overlay medium consisting of RPMI-1640 medium with 10 % fetal calf serum, antibiotics and 0.6 % agarose was poured in. The maximum concentration of the diluted glycyrrhizin in plaque assay medium was 0.01 mg/ml, and this concentration itself reduced about 10 % of HIV induced plaque forming activity in MT-4 cells.

The subject of data set [7] is normal pheripleral blood monouclear cells. Description: 3H-thymidine uptake in normal peripheral blood mononuclear cells (lectin-induced blast formation). The class given is cell-based. The conditions noted are these: normal lymphocytes, 3 days. As for the experimental part: as §1
Data set [8] deals with HIV. Kind of data set: Cytopathic effect in HIV infected clone No.8 cells of Molt-4 (viable cells, viability). The settings on record: 1 mg/ml. The format is cell-based. For orientation: Damage to the host cells serves as the signal in cytopathic effect assays.
Data set [9] has as its system HIV. Description: HIV-specific antigen expression in HIV infected clone No.8 cells of Molt-4 (immunofluorescence). The format is cell-based. The conditions noted are these: 1 mg/ml.
Data set [10] relates to HIV. Kind of data set: Reverse transcriptase activity in culture fluids of HIV infected clone No.8 cells of Molt-4. The format is cell-based. The conditions noted are these: 1 mg/ml.
Data set [11] relates to HIV. Description: Number of HIV in culture fluids of infected clone No.8 cells of Molt-4 (MT-4 cell plaque assay system). The class given is cell-based. The settings on record: 1 mg/ml.
In data set [12] the test system is HIV. Description: Cell fusion of HIV infected clone No.8 cells of Molt-4. The class given is cell-based. The conditions noted are these: 1 mg/ml, day 6 and 9.
Another data set in a line: Acute toxicity, rat. The format is in vivo. The settings on record: Oral administration (rat).
For data set [13] the following is noted: mouse, in vivo, ip.
In data set [14] the test system is herpes simplex virus. The conditions noted are these: human embryonic fibroblast; cited from earlier work.
The next data set has as its system Varicella-Zoster virus. The settings on record: human embryonic fibroblast; cited from earlier work.

Values after ≈ are worked out from the molar mass of the structure shown. Read-outs that look alike come from different tables or passages of the source.

On to `CC1(C)[C@@H](O)CC[C@]2(C)[C@H]3C(=O)C=C4[C@@H]5C[C@@](C)(C(=O)O)CC[C@]5(C)CC[C@@]4(C)[C@]3(C)CC[C@@H]12` [glycyrrhetinic acid], for which, in the data set with herpes simplex virus [1], the “replication of herpes simplex virus” value is “suppress the replication”. Moreover, the “inactivation of virus particles” value with herpes simplex virus [1] (herpes simplex virus incubated with compound for 30 min) and in the data set on VSV (VSV incubated with compound for 30 min) was “inactivates the virus particles” throughout. In addition, the “replication of VSV” value in the data set on VSV is on record as “suppress the replication”.

As for `Cc1cn([C@H]2C[C@H](N=[N+]=[N-])[C@@H](COP(=O)(O)OP(=O)(O)OP(=O)(O)O)O2)c(=O)[nH]c1=O` [3' -azido-TIP, 3'-azido-3'-deoxythymidine triphosphate], the “inhibition of reverse transcriptase activity” value at reverse transcriptase (0.005 mg/ml) turned out to be 97%.

For `CC1(C)[C@@H](O[C@H]2O[C@H](C(=O)O)[C@@H](O)[C@H](O)[C@H]2O[C@@H]2O[C@H](C(=O)O)[C@@H](O)[C@H](O)[C@H]2O)CC[C@]2(C)[C@H]3C(=O)C=C4[C@@H]5C[C@@](C)(C(=O)O)CC[C@]5(C)CC[C@@]4(C)[C@]3(C)CC[C@@H]12` [glycyrrhizin], the “reduction of HIV induced plaque forming activity in MT-4 cells” value with HIV [2] (0.01 mg/ml in plaque assay medium) is “about 10%”. For the same compound, in the data set on HIV [2] (0.05 mg/ml in agarose overlay medium, MT-4 cells), the “suppression of plaque formation” value was 34.2%. Moreover, the “inhibition of plaque formation” value is “completely inhibited” in the data set on HIV [2] (0.5 mg/ml, MT-4 cells) and “completely inhibited” in the data set on HIV [2] (1 mg/ml, MT-4 cells). For the same compound, in the data set with HIV [2] (MT-4 cells), the “selectivity index (the ratio on the ID50 for host cell DNA synthesis to the average ID50 for HIV)” value worked out at 17.2. In the data set on HIV [2] (MT-4 cells, Fig.1), the “ID50 (plaque formation of HIV)” value is 125 µg/mL. The “growth inhibition of infected cultures as compared with the uninfected MT-4 cells” value in the data set on HIV [3] (0.25 mg/ml), in the data set with HIV [3] (0.5 mg/ml) and with HIV [3] (1 mg/ml) was “not significant” throughout. In the data set on MT-4 cells [4], this compound registered a growth inhibition of 50%. Moreover, in the data set on MT-4 cells [5], the “ID50 for DNA synthesis of uninfected MT-4 cells” value was determined as 2150 µg/mL. Besides, the “percentage of IF-positive cells” value stood at 70.9 with HIV [6] (0.005 mg/ml); 69.3 in the data set on HIV [6] (0.05 mg/ml); 23.3 with HIV [6] (0.25 mg/ml); 1.0 in the data set with HIV [6] (0.5 mg/ml); 0.6 in the data set on HIV [6] (1 mg/ml). For the same compound, the results for the “expression of HIV-specific antigen (in words)” value in the data set with HIV [6] (0.25 mg/ml), in the data set with HIV [6] (0.5 mg/ml) and with HIV [6] (1 mg/ml) were “significant inhibition”, “almost completely suppressed” and “almost completely suppressed”, respectively. Moreover, the “inactivation of HIV particles” value with HIV particles is given as “did not inactivate”. The “ID50 on PHA response” value in [7] (PHA) amounted to 2100 µg/mL (≈ 2550 µM). The “ID50 on concanavalin A response” value in data set [7] (concanavalin A) came out at 2000 µg/mL (≈ 2430 µM). For the same compound, the viability in the data set with HIV [8] (on day 3) was found to be 91.4%; in the data set on HIV [8] (on day 6), 83.4%; in the data set on HIV [8] (on day 9), 84.4%. Besides, the results for the viable cells in the data set with HIV [8] (on day 3), with HIV [8] (on day 6) and with HIV [8] (on day 9) were 1.5e+06 mL⁻¹, 3.4e+06 mL⁻¹ and 7.57e+06 mL⁻¹, respectively. For the same compound, the IF posivive cells with HIV [9] (on day 6) was 7.1%. Besides, in the data set on HIV [9] (on day 9), the IF positive cells is reported as 5.8%. Also, the RT in the data set with HIV [10] (on day 3, CPM per 10^4 viable cells) worked out at 1536 cpm; in the data set with HIV [10] (on day 6, CPM per 10^4 viable cells) it was 5369 cpm; in the data set with HIV [10] (on day 9, CPM per 10^4 viable cells), 4369 cpm. Besides, the “number of HIV” value with HIV [11] (on day 3) is recorded as 500< pfu/ml; in the data set on HIV [11] (on day 6) it was 500< pfu/ml; with HIV [11] (on day 9), 1000 pfu/ml. For the same compound, the “fusion on clone No.8 cells of Molt-4” value with HIV [12] is given as “did not occur”. The LD5o was 3000 mg/kg in “Acute toxicity, rat”; 225 to 244 mL/kg in data set [13]; 682.5 mg/kg in “Acute toxicity, mouse” (Intravenous injection 2 % aqueous solution (mouse)); 1873.3 mg/kg in “Acute toxicity, mouse” (Subcutaneous injection 5 % aqueous solution (mouse)). Also, the “ID50 against herpes simplex virus” value in the data set on herpes simplex virus [14] is 600 µg/mL (≈ 729 µM). Moreover, the “ID50 against Varicella-Zoster virus” value in the data set on Varicella-Zoster virus is 580 µg/mL (≈ 705 µM). Further, the “inhibition of reverse transcriptase activity of HIV (in words)” value on reverse transcriptase (even at 10 mg/ml) is recorded as “did not inhibit”.

As a reminder, the viability is a per cent measure of how many cells are alive, often set against a control. Read a high viability as better survival.
